Measured values taken from patent US20250171437A1 (Agios Pharmaceuticals,Inc., priority 2022, published 2025).

Target: T1, human PAH with the R408W mutation (A375 R408W cells) (Homo sapiens, UniProt P00439, R408W)
T1 construct: expressed in transfected cells
T1 sequence (P00439 1-452 R408W): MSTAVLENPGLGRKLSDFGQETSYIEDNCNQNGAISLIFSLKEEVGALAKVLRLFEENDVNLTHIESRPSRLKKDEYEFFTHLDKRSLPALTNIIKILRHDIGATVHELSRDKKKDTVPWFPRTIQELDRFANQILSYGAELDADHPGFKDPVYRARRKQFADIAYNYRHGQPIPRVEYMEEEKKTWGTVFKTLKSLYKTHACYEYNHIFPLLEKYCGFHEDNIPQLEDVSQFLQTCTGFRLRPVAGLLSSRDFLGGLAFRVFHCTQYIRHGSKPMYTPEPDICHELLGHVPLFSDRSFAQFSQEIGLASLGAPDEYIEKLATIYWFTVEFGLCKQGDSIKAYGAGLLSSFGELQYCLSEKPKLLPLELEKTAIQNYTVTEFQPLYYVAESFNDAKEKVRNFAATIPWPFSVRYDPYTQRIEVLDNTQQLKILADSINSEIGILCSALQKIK
Test: Cell Based Phenylalanine Flux Assay
Conditions: A375 R408W cells; 24 hrs with compound, then 20 μM sepiapterin and 800 μM 13C9,15N-Phenylalanine for 4 hours; 13C-Tyrosine by LC-MS; average where tested multiple times
In short: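 AC50 is derived from LC-MS of 13C-tyrosine in the media after a 4 h pulse of 800 μM 13C9,15N-phenylalanine plus 20 μM sepiapterin. The A375 R408W PAH cells had received duplicate 10-point, 2-fold compound dilutions (0.5% DMSO) for 24 h beforehand.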

| Compound | AC50 [nM] |
| --- | --- |
| O=C(c1oc(-c2ncccn2)nc1C(F)F)N1CCc2[nH]cnc2[C@H]1c1nc2cccc(F)c2o1 [Example 667, (S)-(4-(difluoromethyl)-2-(pyrimidin-2-yl)oxazol-5-yl)(4-(7-fluorobenzo[d]oxazol-2-yl)-6,7-dihydro-1H-imidazo[4,5-c]pyridin-5(4H)-yl)methanone] | ≤ 500 |
| Cn1cc(-c2nc(C(F)(F)F)c(C(=O)N3CCc4[nH]cnc4[C@H]3c3nc4cccc(F)c4o3)o2)cn1 [Example 669, (S)-(4-(7-fluorobenzo[d]oxazol-2-yl)-6,7-dihydro-1H-imidazo[4,5-c]pyridin-5(4H)-yl)(2-(1-methyl-1H-pyrazol-4-yl)-4-(trifluoromethyl)oxazol-5-yl)methanone] | ≤ 500 |
| Cn1cc(-c2nc(C(F)(F)F)c(C(=O)N3CCc4[nH]cnc4[C@@H]3c3nc4cccc(F)c4o3)o2)cn1 [Example 670, (R)-(4-(7-fluorobenzo[d]oxazol-2-yl)-6,7-dihydro-1H-imidazo[4,5-c]pyridin-5(4H)-yl)(2-(1-methyl-1H-pyrazol-4-yl)-4-(trifluoromethyl)oxazol-5-yl)methanone] | ≤ 500 |
| O=C(c1nnc(-c2ccc(OC(F)(F)F)cn2)o1)N1CCc2[nH]cnc2[C@H]1c1nc2cc(F)ccc2o1 [Example 671, (S)-(4-(5-fluorobenzo[d]oxazol-2-yl)-6,7-dihydro-1H-imidazo[4,5-c]pyridin-5(4H)-yl)(5-(5-(trifluoromethoxy)pyridin-2-yl)-1,3,4-oxadiazol-2-yl)methanone] | 1000 to 5000 |
| O=C(c1nnc(-c2ccc(OC(F)(F)F)cn2)o1)N1CCc2[nH]cnc2[C@@H]1c1nc2cc(F)ccc2o1 [Example 672, (R)-(4-(5-fluorobenzo[d]oxazol-2-yl)-6,7-dihydro-1H-imidazo[4,5-c]pyridin-5(4H)-yl)(5-(5-(trifluoromethoxy)pyridin-2-yl)-1,3,4-oxadiazol-2-yl)methanone] | 1000 to 5000 |
| Cc1ccc2oc([C@@H]3c4nc[nH]c4CCN3C(=O)c3nnc(-c4cnn(C(F)F)c4)o3)nc2c1 [Example 673, (S)-(5-(1-(difluoromethyl)-1H-pyrazol-4-yl)-1,3,4-oxadiazol-2-yl)(4-(5-methylbenzo[d]oxazol-2-yl)-6,7-dihydro-1H-imidazo[4,5-c]pyridin-5(4H)-yl)methanone] | ≤ 500 |
| Cc1ccc2oc([C@H]3c4nc[nH]c4CCN3C(=O)c3nnc(-c4cnn(C(F)F)c4)o3)nc2c1 [Example 674, (R)-(5-(1-(difluoromethyl)-1H-pyrazol-4-yl)-1,3,4-oxadiazol-2-yl)(4-(5-methylbenzo[d]oxazol-2-yl)-6,7-dihydro-1H-imidazo[4,5-c]pyridin-5(4H)-yl)methanone] | 1000 to 5000 |
| O=C(c1oc(N2CCC(F)CC2)nc1C(F)F)N1CCc2[nH]cnc2[C@@H]1c1nc2cccc(F)c2o1 [Example 675, (R)-(4-(difluoromethyl)-2-(4-fluoropiperidin-1-yl)oxazol-5-yl)(4-(7-fluorobenzo[d]oxazol-2-yl)-6,7-dihydro-1H-imidazo[4,5-c]pyridin-5(4H)-yl)methanone] | ≤ 500 |
| O=C(c1oc(N2CCC(F)CC2)nc1C(F)F)N1CCc2[nH]cnc2[C@H]1c1nc2cccc(F)c2o1 [Example 676, (S)-(4-(difluoromethyl)-2-(4-fluoropiperidin-1-yl)oxazol-5-yl)(4-(7-fluorobenzo[d]oxazol-2-yl)-6,7-dihydro-1H-imidazo[4,5-c]pyridin-5(4H)-yl)methanone] | ≤ 500 |
| COc1ccc(-c2nnc(C(=O)N3CCc4[nH]cnc4[C@H]3c3nc4cc(C)ccc4o3)o2)nc1 [Example 677, (S)-(5-(5-methoxypyridin-2-yl)-1,3,4-oxadiazol-2-yl)(4-(5-methylbenzo[d]oxazol-2-yl)-6,7-dihydro-1H-imidazo[4,5-c]pyridin-5(4H)-yl)methanone] | ≤ 500 |
| COc1ccc(-c2nnc(C(=O)N3CCc4[nH]cnc4[C@@H]3c3nc4cc(C)ccc4o3)o2)nc1 [Example 678, (R)-(5-(5-methoxypyridin-2-yl)-1,3,4-oxadiazol-2-yl)(4-(5-methylbenzo[d]oxazol-2-yl)-6,7-dihydro-1H-imidazo[4,5-c]pyridin-5(4H)-yl)methanone] | 1000 to 5000 |
| Cc1ccc2nc([C@@H]3c4nc[nH]c4CCN3C(=O)c3nnc(-c4ncccc4F)o3)oc2c1 [Example 679, (S)-(5-(3-fluoropyridin-2-yl)-1,3,4-oxadiazol-2-yl)(4-(6-methylbenzo[d]oxazol-2-yl)-6,7-dihydro-1H-imidazo[4,5-c]pyridin-5(4H)-yl)methanone] | 500 to 1000 |
| Cc1ccc2nc([C@H]3c4nc[nH]c4CCN3C(=O)c3nnc(-c4ncccc4F)o3)oc2c1 [Example 680, (R)-(5-(3-fluoropyridin-2-yl)-1,3,4-oxadiazol-2-yl)(4-(6-methylbenzo[d]oxazol-2-yl)-6,7-dihydro-1H-imidazo[4,5-c]pyridin-5(4H)-yl)methanone] | 1000 to 5000 |
| Cc1ccc2nc([C@@H]3c4nc[nH]c4CCN3C(=O)c3nnc(-c4cnn(C(F)F)c4)o3)oc2c1 [Example 681, (S)-(5-(1-(difluoromethyl)-1H-pyrazol-4-yl)-1,3,4-oxadiazol-2-yl)(4-(6-methylbenzo[d]oxazol-2-yl)-6,7-dihydro-1H-imidazo[4,5-c]pyridin-5(4H)-yl)methanone] | 500 to 1000 |

Now from value to compound:

| AC50 [nM] | Compound |
| --- | --- |
| ≤ 500 | Cc1cc(F)cc2nc([C@@H]3c4nc[nH]c4CCN3C(=O)c3ocnc3C(F)F)oc12 [Example 657, (S)-(4-(difluoromethyl)oxazol-5-yl)(4-(5-fluoro-7-methylbenzo[d]oxazol-2-yl)-6,7-dihydro-1H-imidazo[4,5-c]pyridin-5(4H)-yl)methanone] |
| ≤ 500 | Cc1cc(F)cc2nc([C@H]3c4nc[nH]c4CCN3C(=O)c3ocnc3C(F)F)oc12 [Example 658, (R)-(4-(difluoromethyl)oxazol-5-yl)(4-(5-fluoro-7-methylbenzo[d]oxazol-2-yl)-6,7-dihydro-1H-imidazo[4,5-c]pyridin-5(4H)-yl)methanone] |
| ≤ 500 | Cc1ccc(C)c2oc([C@@H]3c4nc[nH]c4CCN3C(=O)c3oc(C(C)(C)O)nc3C(F)F)nc12 [Example 659, (S)-(4-(difluoromethyl)-2-(2-hydroxypropan-2-yl)oxazol-5-yl)(4-(4,7-dimethylbenzo[d]oxazol-2-yl)-6,7-dihydro-1H-imidazo[4,5-c]pyridin-5(4H)-yl)methanone] |
| 1000 to 5000 | Cc1ccc(C)c2oc([C@H]3c4nc[nH]c4CCN3C(=O)c3oc(C(C)(C)O)nc3C(F)F)nc12 [Example 660, (R)-(4-(difluoromethyl)-2-(2-hydroxypropan-2-yl)oxazol-5-yl)(4-(4,7-dimethylbenzo[d]oxazol-2-yl)-6,7-dihydro-1H-imidazo[4,5-c]pyridin-5(4H)-yl)methanone] |
| 1000 to 5000 | O=C(c1oc(-c2ncccn2)nc1C(F)F)N1CCc2[nH]cnc2[C@H]1c1nc2cc(F)ccc2o1 [Example 661, (S)-(4-(difluoromethyl)-2-(pyrimidin-2-yl)oxazol-5-yl)(4-(5-fluorobenzo[d]oxazol-2-yl)-6,7-dihydro-1H-imidazo[4,5-c]pyridin-5(4H)-yl)methanone] |
| 1000 to 5000 | O=C(c1oc(-c2ncccn2)nc1C(F)F)N1CCc2[nH]cnc2[C@@H]1c1nc2cc(F)ccc2o1 [Example 662, (R)-(4-(difluoromethyl)-2-(pyrimidin-2-yl)oxazol-5-yl)(4-(5-fluorobenzo[d]oxazol-2-yl)-6,7-dihydro-1H-imidazo[4,5-c]pyridin-5(4H)-yl)methanone] |
| ≤ 500 | COc1cc(F)c2oc([C@@H]3c4nc[nH]c4CCN3C(=O)c3ocnc3C(F)F)nc2c1 [Example 663, (S)-(4-(difluoromethyl)oxazol-5-yl)(4-(7-fluoro-5-methoxybenzo[d]oxazol-2-yl)-6,7-dihydro-1H-imidazo[4,5-c]pyridin-5(4H)-yl)methanone] |
| ≤ 500 | COc1cc(F)c2oc([C@H]3c4nc[nH]c4CCN3C(=O)c3ocnc3C(F)F)nc2c1 [Example 664, (R)-(4-(difluoromethyl)oxazol-5-yl)(4-(7-fluoro-5-methoxybenzo[d]oxazol-2-yl)-6,7-dihydro-1H-imidazo[4,5-c]pyridin-5(4H)-yl)methanone] |
| ≤ 500 | Cn1cc(-c2nnc(C(=O)N3CCc4[nH]cnc4[C@H]3c3nc4cc(F)cc(F)c4o3)o2)cn1 [Example 665, (S)-(4-(5,7-difluorobenzo[d]oxazol-2-yl)-6,7-dihydro-1H-imidazo[4,5-c]pyridin-5(4H)-yl)(5-(1-methyl-1H-pyrazol-4-yl)-1,3,4-oxadiazol-2-yl)methanone] |
| ≤ 500 | Cn1cc(-c2nnc(C(=O)N3CCc4[nH]cnc4[C@@H]3c3nc4cc(F)cc(F)c4o3)o2)cn1 [Example 666, (R)-(4-(5,7-difluorobenzo[d]oxazol-2-yl)-6,7-dihydro-1H-imidazo[4,5-c]pyridin-5(4H)-yl)(5-(1-methyl-1H-pyrazol-4-yl)-1,3,4-oxadiazol-2-yl)methanone] |
| ≤ 500 | O=C(c1oc(-c2ncccn2)nc1C(F)F)N1CCc2[nH]cnc2[C@@H]1c1nc2cccc(F)c2o1 [Example 668, (R)-(4-(difluoromethyl)-2-(pyrimidin-2-yl)oxazol-5-yl)(4-(7-fluorobenzo[d]oxazol-2-yl)-6,7-dihydro-1H-imidazo[4,5-c]pyridin-5(4H)-yl)methanone] |
